Data from PMC9921329, “Semisynthetic Sesquiterpene Lactones Generated by the Sensibility of Glaucolide B to Lewis and Brønsted–Lowry Acids and Bases: Cytotoxicity and Anti-Inflammatory Activities” (Molecules, 2023).

Tests used:
[1] = tested on: SK-MEL-28 (human melanoma cell line); assay: MTT cell viability / cytotoxicity, human melanoma cells; format: cell-based; conditions: for Viability (%) SK-MEL-28 / CC50: MTT; for Viability (%) SK-MEL-28: 24 h incubation, mean ± SD (n = 3), test concentration not given; for CC50: Homo sapiens, SK-MEL-28, 24 h, half-maximal cytotoxic concentration; for SI (selectivity index) SK-MEL-28: ratio of CC50 of non-tumoral HUVEC cells to CC50 of SK-MEL-28
Protocol: (§1) To evaluate the potential antitumoral activity of the compounds, the MTT [3-(4,5-dimethyl-2-thiazolyl)-2,5-diphenyl-2H-tetrazolium bromide] method was used to determine the cell viability of SK-MEL-28 (human melanoma cell line), NCI-H460 (human lung carcinoma cell line), SF295 (human glioblastoma cell line), and HUVEC (human umbilical vein endothelial cells) line. Cell viability analysis of murine macrophage J774A.1 was conducted using a resazurin-based cytotoxicity assay (Alamar blue®). All cell lines were acquired from the BCRJ (Rio de Janeiro Cell Bank, Federal University of Rio de Janeiro, Brazil). The cell lines were cultivated in RPMI-1640 or DMEM medium, supplemented with 1.5 g/L of sodium bicarbonate, 10 mM of HEPES, pH 7.4, 100 U/mL of penicillin G, 100 μg/mL of streptomycin, and 10% fetal calf serum at 37 °C in a humidified atmosphere consisting of 95% air and 5% CO2 cultures, and greater than 95% of viable cells in trypan blue exclusion tests were used for the experiments. Therefore, cells were seeded (1 × 10^4/well) in 96-well plates and incubated with increasing concentrations of the compounds for 24 h. After incubation, the former culture medium was replaced with a fresh culture medium with 5 mg/mL of MTT and with 0.1 mg/mL of resazurin for 2 h at 37 °C. MTT formazan crystals were dissolved in DMSO, and the absorbance of each well was measured at 540 nm, using a micro-well system reader. For the control group of each cell line, cells were incubated without the compounds and considered to have 100% cell viability. MTT formazan crystals were dissolved in DMSO, and absorbance was measured at 540 nm using a microplate reader (ELX800, Biotek, Winooski, VT, USA). The half-maximal cytotoxic concentration (CC50) values were calculated from a Hill concentration–response curve. Results were expressed as the mean ± SD of three experiments. The selectivity index (SI) was calculated via the ratio between the CC50 of non-tumoral cells and the tumoral cell lines. […] For the resazurin assay, fluorescence was measured at 1 h intervals using a plate multi-reader (Infinite Multireader m200 Tecan) at 530–590 nm. Nonlinear regression of each fraction versus percentage cell viability was performed to obtain a 10% toxicity concentration (a concentration causing 90% cell viability) using GraphPad Prism 8.0 software (GraphPad Software, San Diego, CA, USA).

[2] = tested on: NCI-H460 (human lung carcinoma cell line); assay: MTT cell viability, human lung carcinoma cells; format: cell-based; conditions: 24 h incubation, mean ± SD (n = 3), test concentration not given
Protocol: as §1

[3] = tested on: SF295 (human glioblastoma cell line); assay: MTT cell viability, human glioblastoma cells; format: cell-based; conditions: 24 h incubation, mean ± SD (n = 3), test concentration not given
Protocol: as §1

[4] = MTT cytotoxicity, non-tumoral endothelial cells; format: cell-based, human; conditions: human, HUVEC cells (non-tumoral), pH 7.4
Protocol: as §1

[5] = tested on: LPS-stimulated M1 macrophages J774A.1 (NOx); assay: Total nitrite nitrate (NOx) release from LPS-stimulated macrophages (Griess); format: cell-based, murine
Protocol: (§2) The in vitro anti-inflammatory activity was performed in murine macrophage J774A.1 and analyzed after modifications to the protocol previously described by […] and coworkers. The evaluation consisted of measuring the production of nitrite through an indicator of NO synthesis in supernatants from LPS-activated macrophages. A number of 1 × 10^5 cells/well were seeded in 96-well plates for 24 h, after which time the culture medium was changed, and the CC10 concentration (Figure S70, found in the Supplementary Materials) of each compound was added to the medium containing DMEM supplemented with 10% FBS. After 15 min, macrophages were stimulated with 10 μg/mL of LPS and incubated for 24 h to obtain a proinflammatory M1-phenotype. Subsequently, supernatants were collected and total nitrite nitrate (NOx) was measured by adding 100 μL of Griess' reagent (1% sulfanilamide and 0.1% N-(1-naphthyl) ethylenediamine in 0.5% phosphoric acid). Absorbance was determined with a microplate reader (ELX800, BioTek, Winooski, VT, USA) at 540 nm. In addition, the proinflammatory cytokine IL-6 was determined using an enzyme-linked immunosorbent assay (ELISA) (BD Bioscience, San Jose, CA, USA) according to the manufacturer's instructions.

[6] = tested on: LPS-stimulated M1 macrophages J774A.1 (IL-6); assay: Interleukin-6 release from LPS-stimulated macrophages (ELISA); format: cell-based, murine
Protocol: as §2

[7] = tested on: murine macrophage J774A.1; assay: Resazurin-based cytotoxicity assay (Alamar blue) in macrophages; format: cell-based; conditions: J774A.1, Figure S70
Protocol: To evaluate the potential antitumoral activity of the compounds, the MTT [3-(4,5-dimethyl-2-thiazolyl)-2,5-diphenyl-2H-tetrazolium bromide] method was used to determine the cell viability of SK-MEL-28 (human melanoma cell line), NCI-H460 (human lung carcinoma cell line), SF295 (human glioblastoma cell line), and HUVEC (human umbilical vein endothelial cells) line. Cell viability analysis of murine macrophage J774A.1 was conducted using a resazurin-based cytotoxicity assay (Alamar blue®). All cell lines were acquired from the BCRJ (Rio de Janeiro Cell Bank, Federal University of Rio de Janeiro, Brazil). […] MTT formazan crystals were dissolved in DMSO, and the absorbance of each well was measured at 540 nm, using a micro-well system reader. […] MTT formazan crystals were dissolved in DMSO, and absorbance was measured at 540 nm using a microplate reader (ELX800, Biotek, Winooski, VT, USA). The half-maximal cytotoxic concentration (CC50) values were calculated from a Hill concentration–response curve. Results were expressed as the mean ± SD of three experiments. The selectivity index (SI) was calculated via the ratio between the CC50 of non-tumoral cells and the tumoral cell lines. […] For the resazurin assay, fluorescence was measured at 1 h intervals using a plate multi-reader (Infinite Multireader m200 Tecan) at 530–590 nm. […]

[8] = compound at CC10, pre-treatment 15 min, LPS 10 μg/mL, 24 h

Row | SMILES | Viability (%) SK-MEL-28 [1] | Viability (%) NCI-H460 [2] | Viability (%) SF295 [3] | CC50 [1] | SI (selectivity index) SK-MEL-28 [1] | CC50 at 24 h [4] | Anti-inflammatory activity, NOx release (in words) ([5]; compound at CC10, LPS 10 μg/mL) | Reduction of NOx release vs control M1 cells (LPS+ group) [5, 8] | Anti-inflammatory activity, IL-6 release (in words) ([6]; compound at CC10, LPS 10 μg/mL) | Reduction of IL-6 release vs control M1 cells (LPS+ group) [6, 8] | Cytotoxicity against macrophages (in words) [7]
1 | CC(=O)OCC1=C2C(OC(C)=O)CC(C)(OC(C)=O)C(=O)CCC3(C)OC3C2OC1=O (centres unmarked) [Compound 1, glaucolide B] | 82.6 ± 4.1% | 85.1 ± 4.6% | 88.0 ± 4.8% | – | – | – | – | – | – | – | –
2 | COCC1=C2C(OC(C)=O)CC(C)(OC(C)=O)C3(O)CCC(C)(O)C(OC(C)=O)C23OC1=O (centres unmarked) [Compound 2, 13-O-methylvernojalcanolide-8-O-acetate] | 87.1 ± 2.6% | 91.8 ± 3.6% | 86.8 ± 6.3% | – | – | – | – | – | – | – | –
3 | CC(=O)OCC1=C2C(OC(C)=O)CC(C)(OC(C)=O)C3(O)CCC(C)(O)C(OC(C)=O)C23OC1=O (centres unmarked) [Compound 3, 1,4-dihydroxy-5,8,10,13-tetraacetoxycadin-7(11)-en-6,12-olide] | 91.1 ± 1.7% | 88.4 ± 3.4% | 86.1 ± 2.3% | – | – | – | – | – | – | – | –
4 | C=C1C(=O)OC2C(OC(C)=O)C3(C)CC4C12C(OC(C)=O)CC(C)(OC(C)=O)C4(O)O3 (stereo not drawn) [Compound 4, 5,8-diacetoxy-2-epi-vernomargolide-1,4-cyclosemiacetal] | 96.4 ± 6.9% | 100.2 ± 2.7% | 94.7 ± 1.1% | – | – | – | – | – | – | – | –
5 | C=C1C(=O)OC2C(OC(C)=O)C3(C)CC4C12C(OC(C)=O)CC(C)(O)C4(O)O3 (stereo not drawn) [Compound 5, 5,8,10-triacetoxy-2-epi-vernomargolide-1,4-cyclosemiacetal] | 95.3 ± 4.1% | 100.3 ± 5.5% | 95.6 ± 3.9% | – | – | – | – | – | – | – | –
6 | C=C1C(=O)OC2C(OC(C)=O)C3(C)CC4C12C(OC(C)=O)CC1(C)OC(C)(C)OC41O3 (stereo not drawn) [Compound 6, 5,8-diacetoxy-2-epi-vernomargolide-1,4-cycloacetal-1,10-acetonide] | 85.9 ± 4.0% | 90.4 ± 1.5% | 90.4 ± 3.7% | – | – | – | – | – | – | – | –
7 | CC(=O)OCC1=C2C(OC(C)=O)CC(C)(OC(C)=O)C3(O)CCC(C)(O3)C(O)C2OC1=O (centres unmarked) [Compound 7, 5-hydroxy-hirsutinolide] | 76.2 ± 7.5% | 89.1 ± 3.9% | 86.7 ± 3.8% | – | – | – | – | – | – | – | –
8 | CC(=O)OCC1=C2C(OC(C)=O)CC(C)(OC(C)=O)C3(O)CCC(C)(O3)C(OC(C)=O)C2OC1=O (centres unmarked) [Compound 7a, 5-acetoxy-hirsutinolide] | 17.1 ± 3.3% | 74.6 ± 1.3% | 86.9 ± 4.3% | 5 µM | 2.5 | 12.7 µM | strongly reduced | ~77% | strongly reduced | ~77% | less cytotoxicity against macrophages
9 | CC(=O)OCC1=C2/C(=C\C3(C)CC=C(O3)C(C)(OC(C)=O)CC2OC(C)=O)OC1=O (centres unmarked) [Compound 7b, 8,10,13-triacetoxy-1(4)-epoxy-germacra-1(2),5(6),7(11)-trien-6(12)-olide] | 16.0 ± 2.6% | 73.2 ± 1.0% | 83.3 ± 1.2% | 11.2 µM | 2.5 | 27.8 µM | – | – | – | – | –
